Test results from patent US8323659B2, “Method for diagnosing and/or treating tumor” (Keio University, priority 2008, dated 2012).

Tests used:
[1] = test system: CD8+ cells of genetically modified mice expressing HLA-A24 (A24-Tg); assay: Gamma interferon production by CD8+ cells of peptide-immunized HLA-A24 transgenic mice; type: cell-based, mouse; conditions: for gamma interferon producing activity at lower concentrations: peptide below 2 μg/mL, normalized to 10 μg/mL as 100%
Experimental: First, dendritic cell precursors were isolated from bone marrow cells of A24-Tg mice using LineagePanel Streptavidin Plus Magnetic Particles-DM (BD Biosciences Inc.) and cultured for 6 days in the presence of GM-CSF (10 ng/mL, Peprotech Inc.) to induce their differentiation. The dendritic cells thus obtained were cultured for 6 hours in the presence of each of the peptides having the sequences shown below (10 μg/mL, synthesized by Invitrogen Inc.), and then injected subcutaneously to genetically modified mice expressing HLA-A24 at 5×10^6 cells per mouse for immunization. In addition, SAGE which has been identified as a testicular tumor antigen and for which a HLA-A24-restricted peptide has been established, was used for a positive control experiment (Cancer Research 60:3848-3855, 2000), and dendritic cells not stimulated by a peptide were used as the negative control.
Spleen cells were collected from the mice one week after the immunization with each of the peptides, and were cultured under the stimulation by 10 μg/mL of the same peptide as used for immunization for 6 days, from which CD8+ cells were isolated by the MACS method using antibody-coupled magnetic beads from Miltenyi Inc . In order to produce cytokine at a higher level, the CD8+ cells (1×10^6) were further stimulated for 24 hours by 0.08 to 10 μg/mL of the same peptide in the presence of APC (1×10^7 cells) that was obtained by collecting the spleen cells freshly from a HLA-A24 expressing-genetically modified mouse and then inactivating the cells with mitomycin C. Amounts of gamma interferon contained in the culture supernatants were measured by Cytometric Bead Array kit for mouse (BD Biosciences Inc.).

[2] = test system: CD8+ cells from PBMC of healthy individuals positive for HLA-A24; assay: Gamma interferon production by peptide-induced human CD8+ cells; type: cell-based; conditions: IL-2 and APC; for gamma interferon production capability: FIG. 5D
Experimental: (§1) First, blood was collected from two healthy individuals positive for HLA-A24, to which 1/10 volume of 4% sodium citrate was added, and was overlaid on Ficoll-Paque (Amersham Inc.) and centrifuged (1500 rpm, 20 min, room temperature). The fraction of monocytes (PBMC) separated in the interface was cultured for 6 days under the stimulation with 10 μg/mL of each peptide, from which CD8+ cells were isolated by the MACS method using antibody-coupled magnetic beads (Miltenyi Inc). In order to estimate cytotoxic activity of the isolated CD8+ cells, they were cocultured with human colon cancer cell line COLO320 (HLA-A24^+ SAGE^+ HERV-H ^+ Env^+) as the target cell at a mixing ratio of [CD8+ cell:COLO320 tumor cell=50:1] for 6 hours. The killed tumor cells were detected using Immunocyto Cytotoxity Detection Kit (MBL inc.), and tumor-specific toxicity rates were calculated according to the protocol attached to the kit. Results are plotted in the graph of FIG. 5A.
In order to evaluate the gamma interferon production capability, 1×10^6 of CD8+ cells were stimulated by 1 or 10 μg/mL of each peptide for 24 hours in the presence of IL-2 (100 U/mL, Peprotech Inc.) and APC (5×10^6 cells) which was obtained by collecting the PBMCs freshly from a healthy individual and then inactivating them with mitomycin C. Amounts of gamma interferon contained in the culture supernatants were measured by Cytometric Bead Array kit for human (BD Biosciences Inc.). Results are plotted in the graph of FIG. 5B.
The gamma interferon production capability was evaluated by stimulating CD8+ cells with 0.1, 1 or 10 μg/mL of each peptide in the presence of IL-2 and APC. The results are plotted in the graph of FIG. 5D.

[3] = test system: PKH67-labeled CD8+ cells in SCID mice; assay: In vivo proliferation of peptide-induced CD8+ cells in immunodeficiency mice; design: species or system mouse; conditions: FIG. 8; for content of CD8+ cells in vivo: SCID mice, peptide 100 μg per animal via tail vein, 5 days, spleen and peripheral blood, versus no peptide administered
Experimental: In the same method as described in Example 4, CD8+ cells were obtained by culturing PBMCs with the stimulation of HERV-H#1 (final concentration 10 μg/mL). The CD8+ cells for a control group were obtained by culturing under the stimulation by NY-ESO-1 peptide (SEQ ID NO: 23) in place of HERV-H#1 at the same concentration. The CD8+ cells thus obtained were fluorescence-labeled by mixing with a fluorescent dye PKH67 (Sigma Corp.) and incubating for 10 min.
The PKH67-labeled CD8+ cells (2×10^6 cells), PBMCs (2×10^7 cells) collected from the same healthy individual, and a peptide (HERV-H Env or NY-ESO-1 (control groups) at 100 μg per animal) were injected via the tail vein of immunodeficiency mice (the SCID mice, CLEA Japan Inc.). Spleen cells and peripheral blood cells were collected from the mice on 5 days after the administration, and the content of PKH67-labeled CD8+ cells was measured by flow cytometry (BD Inc.). Mice treated similarly except that no peptide was administered were used for a control experiment.

[4] = test system: human colon cancer cell line COLO320; assay: Toxicity of peptide-induced CD8+ cells (HLA-A24 positive PBMC) against COLO320; type: cell-based
Experimental: as §1
The toxicity against tumor cells was evaluated by setting the ratio of CD8+ cells:COLO320 tumor cells to 6.25:1, 12.5:1, 25:1 or 50:1. The results are plotted in the graph of FIG. 5C.

[5] = test system: human pancreatic tumor cell line Panc-1; assay: Toxicity of peptide-induced CD8+ cells (HLA-A02 positive PBMC) against Panc-1; type: cell-based; conditions: two HLA-A02 positive healthy individuals; FIG. 5E
[6] = test system: Clone F3 (Panc-1 cells in which the snail gene was forcibly expressed); assay: Cell growth of Clone F3 after siRNA transfection; type: cell-based, human; conditions: F3 cells cultured 2 to 3 days after siRNA transfection; in contrast to untreated cells and control siRNA; FIG. 3A
Experimental: First, snail cDNA (CDS 71-865, 795 bp) was amplified by PCR using the Panc-1 cells that had been stimulated with TGF-beta known as an EMT-inducing agent, and was inserted into the EcoR I-Xho I restriction sites of pcDNA3.1 (+) plasmid vector (Invitrogen Inc.) having a G418 resistance gene. The vector was introduced into the tumor cell lines by electroporation. The cells were cultured for 2 weeks and then drug-resistant cells were selected with G418 (2 mg/mL) and cloned.
In this example, the expression of HERV-H env gene was suppressed in Clone F3 and cell invasion capability and growth rate were measured.
(§2) First, 5×10^4 of F3 cells, as well as F3 cells (#1 to #4, Invitrogen Inc.) that had been cultured for 2 to 3 days after transfected with each of the 4 kinds of HERV-H env gene specific-siRNAs (shown below) by PEI complex method (Polyplus Inc.), were counted. The numbers of cells as plotted in the graph of FIG. 3A were taken as a standard of the growth rates.
(§3) For control experiments, F3 cells (Control) transfected with a control oligonucleotide from Invitrogen, F3 cells (siRNA-snail) transfected with snail gene specific-siRNA (SiRNA-snail #1) (shown below) and a Panc-1 cell line (Parent) were used.

[7] = test system: Clone F3 (Panc-1 cells in which the snail gene was forcibly expressed); assay: Cell invasion capability of Clone F3 (matrigel Invasion Chamber); type: cell-based, human; conditions: F3 cells transfected with siRNA; matrigel-coated membrane, 4 hours; FIG. 3B
From the text: as §2
Then, the recovered cells were placed on the upper surface of the Invasion Chamber (pore size 8 μm, BD Bioscience Inc.) whose membrane was coated with matrigel, and cultured for 4 hours (37° C., 5% CO2). After cells remaining on the upper surface of the membrane were removed completely, the cells invaded into the lower surface of the membrane were fixed and stained with Crystal Violet solution and counted under a microscope to evaluate the cell invasion capability.
as §3

[8] = lower peptide concentration (0.1 μg/mL)
[9] = peptide concentrations equal to or higher than 1 μg/mL

FYSLLLYSL (listed as Homo sapiens) [HERV-H#2]
amounts of gamma interferon produced (comparison among the HERV-H Env peptides) ([1]; peptide 0.08 to 10 μg/mL, FIG. 4B): highest activity
gamma interferon producing activity at lower concentrations ([1]; FIG. 4B): significantly reduced

LLMWITQCF (listed as Homo sapiens) [NY-ESO-1, HLA-A24-restricted tumor antigen peptide clinically used in peptide vaccine treatments, reference compound]
gamma interferon production capability [2, 8]: significantly reduced
gamma interferon production capability [2, 9]: best production
content of CD8+ cells in vivo [3]: higher content of CD8+ cells

NYAEPPWPL (listed as Homo sapiens) [HERV-H#3]
gamma interferon producing activity at lower concentrations ([1]; FIG. 4B): significantly reduced

SYLHHTINL (listed as Homo sapiens) [HERV-H#1]
TCR-binding affinity ([1]; inferred from the concentration dependence of gamma interferon production, P<0.001, t-test): significantly higher than the other peptides
gamma interferon producing activity at lower concentrations ([1]; FIG. 4B): maintained
toxicity against tumor cells (COLO320) ([4]; E:T ratio equal to or more than 25:1, FIG. 5C): highest toxicity
toxicity against tumor cells (killed COLO320) ([4]; two HLA-A24 positive healthy individuals, CD8+ cell:COLO320 = 50:1, 6 hours, FIG. 5A): highest
gamma interferon production capability [2, 8]: still sufficient to induce gamma interferon production
gamma interferon production ([2]; peptide 10 μg/mL, 24 hours, FIG. 5B): significantly higher production than the other peptides
gamma interferon production capability [2, 9]: second best after NY-ESO-1
toxicity against tumor cells (killed Panc-1) [5]: highest toxicity
content of CD8+ cells in vivo [3]: higher content of CD8+ cells
self-proliferation of the induced CD8+ cells ([3]; no peptide administered to the mice, versus CD8+ cells induced by NY-ESO-1 peptide): less active
proliferation activity of the induced CD8+ cells ([3]; peptides administered to the mice, versus CD8+ cells induced by NY-ESO-1 peptide): higher than that of the CD8+ cells induced by NY-ESO-1 peptide

siRNA-snail: snail gene specific-siRNA; sense GCGAGCUGCAGGACUCUAAdTdT (SEQ ID NO: 18), antisense SEQ ID NO: 19 (sense GCGAGCUGCAGGACUCUAATT; antisense UUAGAGUCCUGCAGCUCGCTT; dTdT overhangs, further chemistry not given here)
cell growth (numbers of cells) [6]: strongly suppressed
cell invasion capability [7]: significantly reduced
